We go through one substance from patent publication EP4410314A1, “COMBINATION THERAPY COMPRISING ANTI-CD22 ANTIBODY-DRUG CONJUGATE AND IRAK1 INHIBITOR” (ADC Therapeutics SA, priority 2023, dated 2024).

In test [1] the test system is KARPAS-299. Kind of test: DNA interstrand crosslinks, single cell gel electrophoresis (Comet) assay, KARPAS-299. The format is cell-based, human. Conditions: KARPAS-299 (CD22-negative), over 48 hours following a 2-hour treatment. The method, then:
Quantification of in vitro DNA interstrand crosslinks (ICLs) was performed using the single cell gel electrophoresis (Comet) assay.
DNA ICLs were measured using a modification of the single-cell gel electrophoresis (Comet) assay, and crosslinking was expressed as the percentage decrease in Olive tail moment (OTM) versus control irradiated cells. […] Immediately after the drug incubation period, a low level of ICLs (3%) was observed, which increased over time to near peak levels (≈50%) at 12 hours and persisted up to 48 hours. […] In this cell line, SG3199 produced a high level of ICL (≈50%), similar to that observed in the Ramos cell line.

Another test concerns NAMALWA. Briefly: In vitro cytotoxicity, NAMALWA. The format is cell-based, human. The note with it: NAMALWA (BL), CD22-positive; mean ± SEM.
A further test has as its system REH. Kind of test: In vitro cytotoxicity, REH. The format is cell-based, human. The note with it: REH (B-ALL), CD22-positive; mean ± SEM.
Another test concerns KM-H2. Briefly: In vitro cytotoxicity, KM-H2. The format is cell-based, human. Conditions: KM-H2 (HL), CD22-negative; mean ± SEM.
Test [2] deals with KARPAS-299. Briefly: In vitro cytotoxicity, KARPAS-299. The format is cell-based, human. Conditions: KARPAS-299 (ALCL), CD22-negative; mean ± SEM.
A further test relates to HL. Briefly: In vitro cytotoxic activity, lymphoma cell line panel: HL. Conditions: 3 cell lines, read-out: Median IC50. The format is cell-based, human.
The next test deals with T-cell lymphomas. Briefly: In vitro cytotoxic activity, lymphoma cell line panel: T-cell lymphomas. It counts as cell-based, human. The note with it: 9 cell lines, read-out: Median IC50.
The next test concerns PTCL-NOS. Kind of test: In vitro cytotoxic activity, lymphoma cell line panel: PTCL-NOS. The format is cell-based, human. Conditions: 1 cell line, read-out: Median IC50.
For a further test, the system named is WSU-DLCL2 xenograft. Kind of test: SC WSU-DLCL2 xenograft model. It counts as in vivo, mice. The source says:
(§1) Ramos, WSU-DLCL2, and KARPAS-299 xenografts were established in 8- to 10-week-old female Fox Chase mice with severe combined immunodeficiency (Charles River Laboratories) by implanting 10^7 cells subcutaneously (SC) into their flanks. When group mean tumor volumes reached approximately 116 to 132 mm^3, mice were randomly allocated into groups to receive the test agent or vehicle. Each animal was euthanized when its tumor reached the end point volume or at the study end. The time to end point (TTE) for analysis was calculated for each mouse by the following equation: TTE (days) = ([log10(end point volume−intercept^(*)]/slope^(*)) [formula] where the * indicates the slope of the line obtained by linear regression of a log-transformed tumor growth data set.
(§2) The log-rank test was used to analyze the significance of differences in TTE between the 2 groups. For the disseminated xenografts model, 10^7 REH cells were inoculated intravenously (IV) into 5- to 8-week-old female NOG mice (Taconic Biosciences). Test compounds were administered IV 4 days after tumor cell inoculation. Individual mice were euthanized, and an autopsy was performed when hind leg paralysis (a sign of leukemia development) occurred and/or the body weight decreased ≥20%. The study was terminated on day 62. The log-rank test was used to determine the significance of the differences in overall survival.

In a further test the test system is REH cells. Briefly: Disseminated B-ALL-derived xenograft model (REH). The format is in vivo, mice. Here is the method:
as §2

The subject of another test is KARPAS-299 xenograft. Briefly: SC KARPAS-299 xenograft model (CD22-negative). The note with it: single 1 mg/kg dose; end of the study (day 29). It counts as in vivo, mice.
Excerpt: as §1, §2

A further test relates to B cells. Briefly: B-cell depletion from circulation. The format is in vivo. The note with it: cynomolgus monkeys, after one ADCT-602 dose.
[3] abbreviates: single dose 3 mg/kg, end of the study (day 59).

As a reminder, the IC50 is the point on the concentration scale where inhibition reaches its midpoint. In the case of “ADCT-602: novel ADC targeting CD22 that consists of humanized monoclonal antibody hLL2-C220, sitespecifically conjugated to the pyrrolobenzodiazepine (PBD) dimer-based payload tesirine”, the “DNA ICLs, percentage decrease in Olive tail moment (OTM) versus control irradiated cells” value in the test with KARPAS-299 [1] is given as “≈ 15%”. Moreover, the IC50 is 2.27 ± 0.052 nM with NAMALWA; 0.05 ± 0.006 nM with REH; 11.4 ± 1.11 nM with KM-H2; 51.7 ± 3.86 nM in the test on KARPAS-299 [2]; 4.5 nM in the test on HL; 1.85 nM with T-cell lymphomas. In addition, in the test with PTCL-NOS, the IC50 came out at 0.7 nM. Also, the CRs with WSU-DLCL2 xenograft (setting [3]) is given as 7/10. Also, in the test with WSU-DLCL2 xenograft (setting [3]), the partial responders is given as 3/10. Besides, the tumor-free survivors in the test on WSU-DLCL2 xenograft (setting [3]) is reported as 2/10. Besides, the “antitumor activity compared with the vehicle and the isotype control ADC” value in the test on WSU-DLCL2 xenograft (single dose at 1 and 3 mg/kg) is reported as “dose-dependent antitumor activity”. Also, in the test with REH cells (single 1.3 mg/kg versus 0.45 mg/kg, every 4 days, for 3 times [Q4D×3]), the “survival time, single dose versus equivalent fractionated dose” value is listed as “comparable survival time”. Besides, the “survival compared with the vehicle and the isotype control ADC” value in the test on REH cells (single dose at 0.45 mg/kg and 1.3 mg/kg IV) is “dose-dependent extension of survival”. In addition, in the test on KARPAS-299 xenograft, the “antitumor activity compared with the vehicle group” value is recorded as “no significant antitumor activity”. Besides, the “depletion of B cells from circulation” value in the test with B cells is on record as “efficiently depleted”.
